Data set [1] can be described thus: The drug is tested on Anaerotruncus colihominis strain: DSM17241 for biotransformation. The drug concentrations were measured before and after a 12-h incubation by liquid-chromatography-coupled mass spectrometry (LC–MS). Conditions: 2 µM.
A short description of data set [2]: The drug is tested on Bacteroides vulgatus strain: ATCC8482 for biotransformation. The drug concentrations were measured before and after a 12-h incubation by liquid-chromatography-coupled mass spectrometry (LC–MS). The conditions noted are these: phocaeicola vulgatus, 2 µM.
Data set [3] in a line: The drug is tested on Dorea formicigenerans strain: ATCC27755 for biotransformation. The drug concentrations were measured before and after a 12-h incubation by liquid-chromatography-coupled mass spectrometry (LC–MS). The conditions noted are these: 2 µM.
The conditions of data set [4]: parabacteroides johnsonii, 12 h, 2 µM.
Description: The drug is tested on Parabacteroides johnsonii strain: DSM18315 for biotransformation. The drug concentrations were measured before and after a 12-h incubation by liquid-chromatography-coupled mass spectrometry (LC–MS)
A short description of data set [5]: The drug is tested on Collinsella aerofaciens strain: ATCC25986 for biotransformation. The drug concentrations were measured before and after a 12-h incubation by liquid-chromatography-coupled mass spectrometry (LC–MS). Conditions: 2 µM.
For data set [6] the following is noted: bifidobacterium adolescentis, 12 h, 2 µM.
Description: The drug is tested on Bifidobacterium adolescentis strain: ATCC 15703 for biotransformation. The drug concentrations were measured before and after a 12-h incubation by liquid-chromatography-coupled mass spectrometry (LC–MS)
Data set [7] is described as follows: The drug is tested on Bacteroides cellulosilyticus strain: DSM14838 for biotransformation. The drug concentrations were measured before and after a 12-h incubation by liquid-chromatography-coupled mass spectrometry (LC–MS). Conditions: 2 µM.
Data set [8] can be described thus: The drug is tested on Bacteroides caccae strain: ATCC43185 for biotransformation. The drug concentrations were measured before and after a 12-h incubation by liquid-chromatography-coupled mass spectrometry (LC–MS). Conditions: 2 µM.
Data set [9] is described as follows: The drug is tested on Ruminococcus gnavus strain: ATCC29149 for biotransformation. The drug concentrations were measured before and after a 12-h incubation by liquid-chromatography-coupled mass spectrometry (LC–MS). The conditions noted are these: mediterraneibacter gnavus, 2 µM.
For data set [10] the following is noted: bacteroides fragilis, 12 h, 2 µM.
Description: The drug is tested on Bacteroides fragilis strain: DS-208 for biotransformation. The drug concentrations were measured before and after a 12-h incubation by liquid-chromatography-coupled mass spectrometry (LC–MS)
A short description of data set [11]: The drug is tested on Ruminococcus torques strain: ATCC27756 for biotransformation. The drug concentrations were measured before and after a 12-h incubation by liquid-chromatography-coupled mass spectrometry (LC–MS). The class given is ADME. On the set-up: dose 2 uM, timepoint 0 vs 12 hours. Conditions: 2 µM.
For data set [12] the following is noted: anaerostipes sp., 12 h, 2 µM.
Description: The drug is tested on Anaerostipes sp. strain: fecal isolate for biotransformation. The drug concentrations were measured before and after a 12-h incubation by liquid-chromatography-coupled mass spectrometry (LC–MS)
For data set [13] the following is noted: bacteroides intestinalis, 12 h, 2 µM.
Description: The drug is tested on Bacteroides intestinalis strain: DSM17393 for biotransformation. The drug concentrations were measured before and after a 12-h incubation by liquid-chromatography-coupled mass spectrometry (LC–MS)
The conditions of data set [14]: bacteroides thetaiotaomicron, 12 h, 2 µM.
Description: The drug is tested on Bacteroides thetaiotaomicron strain: VPI-5482 for biotransformation. The drug concentrations were measured before and after a 12-h incubation by liquid-chromatography-coupled mass spectrometry (LC–MS)
The nature of data set [15]: The drug is tested on Clostridium scindens strain: ATCC35704 for biotransformation. The drug concentrations were measured before and after a 12-h incubation by liquid-chromatography-coupled mass spectrometry (LC–MS). Conditions: 2 µM.
Data set [16] is described as follows: The drug is tested on Clostridium sp. strain: fecal isolate for biotransformation. The drug concentrations were measured before and after a 12-h incubation by liquid-chromatography-coupled mass spectrometry (LC–MS). Conditions: 2 µM.
The nature of data set [17]: The drug is tested on Parabacteroides merdae strain: ATCC43184 for biotransformation. The drug concentrations were measured before and after a 12-h incubation by liquid-chromatography-coupled mass spectrometry (LC–MS). Conditions: 2 µM.
Data set [18] can be described thus: The drug is tested on Bifidobacterium longum subsp. Infantis strain: CCUG52486 for biotransformation. The drug concentrations were measured before and after a 12-h incubation by liquid-chromatography-coupled mass spectrometry (LC–MS). The conditions noted are these: 2 µM.
A short description of data set [19]: The drug is tested on Ruminococcus lactaris strain: ATCC29176 for biotransformation. The drug concentrations were measured before and after a 12-h incubation by liquid-chromatography-coupled mass spectrometry (LC–MS). The conditions noted are these: 2 µM.
Data set [20] can be described thus: The drug is tested on Bifidobacterium ruminantium strain: fecal isolate for biotransformation. The drug concentrations were measured before and after a 12-h incubation by liquid-chromatography-coupled mass spectrometry (LC–MS). The conditions noted are these: 2 µM.

Take `N#Cc1ccc2[nH]cc(CCCCN3CCN(c4ccc5oc(C(N)=O)cc5c4)CC3)c2c1` [VILAZODONE]: the “Bacterial Biotransformation” value in data set [1] was “Compound NOT metabolized”; in data set [2] it was “Compound metabolized”; in data set [3] it was “Compound NOT metabolized”; in data set [4], “Compound metabolized”; in [5] it was “Compound NOT metabolized”; in data set [6], “Compound NOT metabolized”. Moreover, the “Bacterial Biotransformation” value in data set [7] was “Compound metabolized”; in data set [8], “Compound metabolized”; in [9], “Compound NOT metabolized”; in data set [10] it was “Compound metabolized”; in data set [11] it was “Compound NOT metabolized”; in data set [12], “Compound NOT metabolized”. Besides, the “Bacterial Biotransformation” value in [13] was “Compound metabolized”; in [14], “Compound metabolized”; in data set [15], “Compound NOT metabolized”; in data set [16], “Compound NOT metabolized”; in data set [17], “Compound metabolized”; in data set [18], “Compound metabolized”. In addition, the “Bacterial Biotransformation” value in data set [19] was “Compound NOT metabolized”.
Take `CCCCCNC(=N)N/N=C/c1c[nH]c2ccc(OC)cc12.O=C(O)/C=C\C(=O)O` [TEGASEROD MALEATE]: the “Bacterial Biotransformation” value in data set [1], in [2], in data set [3], in data set [4], in [5] and in data set [6] was “Compound NOT metabolized” each time. The “Bacterial Biotransformation” value in [7], in data set [8], in data set [9], in data set [10], in data set [11] and in [12] was “Compound NOT metabolized” each time. Further, the “Bacterial Biotransformation” value in data set [13], in data set [14], in data set [15], in data set [16], in data set [17] and in data set [18] was “Compound NOT metabolized” throughout. The “Bacterial Biotransformation” value in data set [19] is given as “Compound NOT metabolized”.
For `Cc1ccc(-c2nc3ccc(C)cn3c2CC(=O)N(C)C)cc1` [ZOLPIDEM], the “Bacterial Biotransformation” value in [1], in [2], in [3], in data set [5], in data set [6] and in data set [7] was “Compound NOT metabolized” each time. The “Bacterial Biotransformation” value in data set [8], in data set [9], in data set [10], in data set [11], in [12] and in [13] was “Compound NOT metabolized” in each case. Besides, the “Bacterial Biotransformation” value in data set [16], in data set [17], in data set [18], in [19] and in [20] was “Compound NOT metabolized” throughout.
In the case of `CCOC(=O)C1=C[C@]2(CC)CCCN3CCc4c(n1c1ccccc41)[C@@H]32` [VINPOCETINE], the “Bacterial Biotransformation” value in [1], in data set [2], in data set [3], in data set [5], in data set [6] and in data set [7] was “Compound NOT metabolized” each time. The “Bacterial Biotransformation” value in [8], in [9], in data set [10], in [12], in data set [13] and in [14] was “Compound NOT metabolized” in each case. Further, the “Bacterial Biotransformation” value is given as “Compound NOT metabolized” in [15]; “Compound metabolized” in data set [16]; “Compound NOT metabolized” in data set [17]; “Compound NOT metabolized” in data set [18]; “Compound NOT metabolized” in data set [19]; “Compound NOT metabolized” in data set [20].
On to `CN(CCOc1ccc(CC2SC(=O)NC2=O)cc1)c1ccccn1.O=C(O)/C=C\C(=O)O` (stereo not drawn) [ROSIGLITAZONE MALEATE], for which the “Bacterial Biotransformation” value in [1], in [2], in data set [3], in [4], in [5] and in data set [6] was “Compound NOT metabolized” in each case. Also, the “Bacterial Biotransformation” value in data set [7], in data set [8], in data set [9], in data set [10], in [11] and in data set [12] was “Compound NOT metabolized” in each case. Besides, the “Bacterial Biotransformation” value in data set [13], in data set [14], in data set [15], in data set [16], in data set [17] and in data set [18] was “Compound NOT metabolized” each time. Also, in data set [19], the “Bacterial Biotransformation” value is “Compound NOT metabolized”.
Consider `CC(C)c1nc(N(C)S(C)(=O)=O)nc(-c2ccc(F)cc2)c1/C=C/[C@@H](O)C[C@@H](O)CC(=O)[O-].CC(C)c1nc(N(C)S(C)(=O)=O)nc(-c2ccc(F)cc2)c1/C=C/[C@@H](O)C[C@@H](O)CC(=O)[O-].[Ca+2]` [ROSUVASTATIN CALCIUM], for which the “Bacterial Biotransformation” value in data set [1], in data set [2], in data set [3], in [5], in data set [6] and in data set [7] was “Compound NOT metabolized” in each case. Moreover, the “Bacterial Biotransformation” value in data set [9], in data set [10], in [11], in [12], in data set [13] and in data set [15] was “Compound NOT metabolized” throughout. The “Bacterial Biotransformation” value in data set [16], in data set [18], in [19] and in [20] was “Compound NOT metabolized” throughout.

Values taken from ChEMBL document CHEMBL5303573, “Mapping human microbiome drug metabolism by gut bacteria and their genes” (Nature, 2019).
